Laboratory results reported in patent US6686382B2, “Sulfonamides and derivatives thereof that modulate the activity of endothelin” (Encysive Pharmaceuticals Inc., priority 1999, dated 2004).
Like-named read-outs stand apart in the source and are kept apart here. Blank lines part the entries; values can stand above or below the compound they belong to.

How the values were obtained:
isolated vascular strips = settings: read-out: EC50, contractile agent; cited from earlier work
ETB receptors = settings: concentrations up to 100 μM; cited from earlier work
ETA receptor = settings: read-out: IC50, inhibition of 125I-labelled endothelin-1 binding, cited from earlier work
[1] = test system: ETA receptors and ETB receptors; experiment: Endothelin binding inhibition, ETA (TE 671) and ETB (transfected COS7) receptors: selectivity; parameters: species or system human; settings: antagonism of ETA receptors over ETB receptors
Source text: (§1) Compounds that are potential endothelin antagonists are identified by testing their ability to compete with ^125I-labeled ET-1 for binding to human ETA receptors or ETB receptors present on isolated cell membranes. The effectiveness of the test compound as an antagonist or agonist of the biological tissue response of endothelin can also be assessed by measuring the effect on endothelin induced contraction of isolated rat thoracic aortic rings. The ability of the compounds to act as antagonists or agonists for ETB receptors can be assess by testing the ability of the compounds are to inhibit endothelin-1 induced prostacyclin release from cultured bovine aortic endothelial cells.
(§2) A. Endothelin Binding Inhibition—Binding Test #1: Inhibition of Binding to ETA Receptors
(§3) TE 671 cells (ATCC Accession No. HTB 139) express ETA receptors. These cells were grown to confluence in T-175 flasks. Cells from multiple flasks were collected by scraping, pooled and centrifugedfor 10 min at 190×g. The cells were resuspended in phosphate buffered saline (PBS) containing 10 mM EDTA using a Tenbroeck homogenizer. The suspension was centrifuged at 4° C. at 57,800×g for 15 min, the pellet was resuspended in 5 ml of buffer A (5 mM HEPES buffer, pH 7.4 containing aprotinin (100 KIU/ml)) and then frozen and thawed once. 5 ml of Buffer B (5 mM HEPES Buffer, pH 7.4 containing 10 mM MnCl2 and 0.001% deoxyribonuclease Type 1) was added, the suspension mixed by inversion and then incubated at 37° C. for 30 minutes. The mixture was centrifuged at 57,800×g as described above, the pellet washed twice with buffer A and then resuspended in buffer C (30 mM HEPES buffer, pH 7.4 containing aprotinin (100 KIU/ml) to give a final protein concentration of 2 mg/ml and stored at −70° C. until use.
(§4) The membrane suspension was diluted with binding buffer (30 mM HEPES buffer, pH 7.4 containing 150 mM NaCl, 5 mM MgCl2, 0.5% Bacitracin) to a concentration of 8 μg/50 μl. ^125I-endothelin-1 (3,000 cpm, […]) was added to 50 μL of either: (A) endothelin-1 (for non specific binding) to give a final concentration 80 nM); (B) binding buffer (for total binding); or (C) a test compound (final concentration 1 nM to 100 μM). The membrane suspension (50 μL), containing up to 8 μg of membrane protein, was added to each of (A), (B), or (C). Mixtures were shaken, and incubated at 4° C. for 16-18 hours, and then centrifuged at 4° C. for 25 min at 2,500×g. Alternatively, the incubation was conducted at 24° C. […] This, must be kept in mind when comparing IC50 concentrations among compounds provided herein.
(§5) The supernatant, containing unbound radioactivity, was decanted and the pellet counted on a Genesys multiwell gamma counter. The degree of inhibition of binding (D) was calculated according to the following equation: [formula]
B. Endothelin Binding Inhibition—Binding Test #2: Inhibition of Binding to ETB Receptors
COS7 cells were transfected with DNA encoding the ETB receptor, The resulting cells, which express the human ETB receptor, were grown to confluence in T-150 flasks. Membrane was prepared as described above. The binding assay was performed as described above using the membrane preparation diluted with binding buffer to a concentration of 1 μg/50 μl.
Briefly, the COS7 cells, described above, that had been transfected with DNA encoding the ETB receptor and express the human ETB receptor on their surfaces were grown to confluence in T-175 flasks. […]

[2] = Pharmacokinetic properties (oral availability, elimination half-life, Cmax); assay type: in vivo
Source text: As used herein, bioavailability or oral availability refers to the rate and extent of absorption. Methods for determining bioavailability or oral availability are well known to those of skill in the art. For example, bioavailability or oral availability of any of the compounds described herein can be determined empirically by administration of the compound to an animal, followed by taking blood samples over time and measuring the blood concentration of the compound. In vivo half life (t1/2) is defined as the time it takes for the concentration of the compound in the blood to be reduced by one-half. Estimations of the area under the curve for intravenous administration can be used to estimate the area under the curve for oral administration, yielding bioavailability data. See, e.g., Milo Gibal (1991) Biopharmaceutics and Pharmacology, 4th edition (Lea and Sediger).

human ETA receptors = target: T1, human ETA receptors (Homo sapiens, UniProt P25101); experiment: Endothelin binding inhibition, Binding Test #1: inhibition of binding to ETA receptors (TE 671 cell membranes); settings: relative to N-(4-chloro-3-methyl-5-isoxazolyl)-2-{[3,4-(methylenedioxy)-6-methylphenyl)acetyl]-thiophene-3-sulfonamide (= 1.0)
T1 construct: endogenous in cells; host or cells: TE 671 cells (ATCC HTB 139), membrane preparation
T1 sequence (P25101 21-427): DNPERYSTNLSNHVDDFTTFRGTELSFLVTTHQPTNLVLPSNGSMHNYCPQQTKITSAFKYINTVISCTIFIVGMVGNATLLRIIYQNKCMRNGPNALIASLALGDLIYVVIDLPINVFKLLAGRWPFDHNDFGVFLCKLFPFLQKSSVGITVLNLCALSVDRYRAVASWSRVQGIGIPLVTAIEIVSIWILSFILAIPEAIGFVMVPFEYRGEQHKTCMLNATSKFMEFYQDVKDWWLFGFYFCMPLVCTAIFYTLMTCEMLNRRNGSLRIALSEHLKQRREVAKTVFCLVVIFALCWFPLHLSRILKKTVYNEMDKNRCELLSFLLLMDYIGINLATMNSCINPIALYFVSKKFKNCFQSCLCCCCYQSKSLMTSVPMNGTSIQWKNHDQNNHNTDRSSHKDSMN
Source text: as §1, §2, §3, §4, §5
Each test was generally performed in triplicate.

Compound: endothelin-1: potent twenty-one amino acid peptide vasoconstrictor
EC50 (isolated vascular strips): 0.4 nM

Compound: cyclo(D-Glu-L-Ala-allo-D-Ile-L-Leu-D-Trp) [BE-18257B]
inhibition of binding to receptors in tissues in which ETB receptors predominate (ETB receptors): fails to inhibit binding
IC50 (ETA receptor; aortic smooth muscle): 1400 nM
IC50 (ETA receptor; cultured aortic smooth muscle cells): 500 nM
IC50 (ETA receptor; ventricle membranes): 800 nM

Selectivity (IC50 for ETB/IC50 for ETA) [1]: 119,000
half-life ([2]; blood, read-out: t½ elim. (converted)): 5.3 h
Cmax ([2]; in vivo): 66 µg/mL
ETA ACTIVITY (ETA antagonist activity relative to reference compound) (human ETA receptors): 17.9
melting point: 176 to 178 °C
Compound: Cc1cc(C)c(NC(=O)c2sccc2S(=O)(=O)Nc2onc(C)c2Cl)c(-c2ncco2)c1 [Compound 44, 3-{[(4-chloro-3-methyl-5-isoxazolyl)amino]sulfonyl}-N-[2,4-dimethyl-6-(1,3-oxazol-2-yl)phenyl]-2-thiophenecarboxamide]
